From PubChem BioAssay AID2060343 (Molecular Pharmacology Branch, DTP, NCI, 2025)

Test system: 138582-337-R-J1-PDC spheroids with HUVEC/MSC, viability
Assay: Anticancer human tumor 138582-337-R-J1-PDC patient-derived Merkel cell tumor cell line growth inhibition [IpAb]
Conditions: for IC50: curve of first compound; for viability, T/C: stronger effect = lower value
Description: Combinatorial screen of targeted agents with ipatasertib and abemaciclib in multi-cell type tumor spheroids
A high-throughput screen of multi-cell type tumor spheroids was designed to identify active combinations of targeted small molecules and ipatasertib or abemaciclib. Complex spheroids include a stromal component modeled by human endothelial cells (HUVEC) and fibroblasts modeled by human mesenchymal stem cells (MSCs). The concentration ranges selected for each drug and investigational agent were based upon clinically achievable concentrations if the clinical Cmax of the agent was known.
Compounds. The drugs and investigational agents: ipatasertib (NSC767898), abemaciclib(NSC768073), selumetinib (NSC741078), trametinib (758246), adavosertib (NSC754352), everolimus (NSC733504), sapanisertib (NSC764658), vemurafenib (NSC761431), venetoclax (NSC766270), copanlisib (NSC809693), apelisib (NSC765974), palbociblib (NSC758247), vemurafenib (NSC761431), dabrafenib (NSC764134), ravoxertinib (NSC781343), BMS-387032 (NSC767048), sotorasib (NSC818433), talazoparib (NSC767125) and afursertib (NSC778305), were obtained from the National Cancer Institute (NCI) Developmental Therapeutics Program Chemical Repository. The FDA-approved anticancer drug set is available from the NCI Developmental Therapeutics Program. […] The stock solutions were prepared in dimethyl sulfoxide (DMSO, Sigma-Aldrich, St. Louis, MO, cat. D2650) at 800-fold the tested concentration and stored at -70 degrees C prior to their use. All drugs and investigational agents were tested over a range starting from a high concentration at or near the clinical Cmax and decreasing in half-log increments. If the clinical Cmax for an agent had not been determined, the highest concentration tested was 10 microM.
NCI60 Cell Culture. NCI60 cell lines were obtained from the NCI Developmental Therapeutics Program Tumor Repository. For each lot of cells, the Repository performed Applied Biosystems AmpFLSTR Identifiler testing with PCR amplification to confirm consistency with the published Identifier STR profile for each cell line. Cells were kept in continuous culture for no more than 20 passages. The optimal seeding densities for each of the cell lines at each time point assessed were determined prior to performing the concentration response studies. Briefly, the NCI60 human tumor lines were grown as monolayers in RPMI 1640 medium supplemented with 10% FBS and 2 mmol/L L-glutamine.
An additional 9 lines were from the NCI60 cell line panel including MDA-MB-231 breast carcinoma, MDA-MB-468 breast carcinoma, MCF7 breast carcinoma, Hs578T breast carcinoma, MALME-3M melanoma, SK-MEL-2 melanoma, SK-OV-3 ovarian carcinoma, DU-145 prostate carcinoma, PC-3 prostate carcinoma, all cell lines along with major genetic alterations are listed on Table 2. Pooled donor human umbilical vein endothelial cells (HUVEC, Lonza, cat. CC-2519) and human mesenchymal stem cells (hMSC, Lonza, cat. PT-2501) were purchased from Lonza (Walkersville, MD).
PDMR cell lines were grown in complete medium (DC medium): Dulbecco's modified Eagle's medium (DMEM)/F12 supplemented with 5% fetal bovine serum (FBS), 2 mM L-glutamine, 100 U/mL penicillin and 100 µg/ml streptomycin, 0.4 µg/ml hydrocortisone, 10 ng/ml epidermal growth factor (EGF) recombinant human protein, 24 µg/mL adenine, and 0.1 mg/mL primocin. During culture from frozen stock vials, PDMR cells were cultured in the same medium containing 10 µM Y-27632 (see Table 3). The PDCs were cultured in complete DMEM/F12 media without 10 microM Y-27632 dihydrochloride for at least two passages prior to the screen. The pooled donor HUVEC and hMSC were cultured in endothelial cell growth medium 2 (PromoCell, Heidelberg, Germany, cat. C-22011) and mesenchymal stem cell growth medium 2 (PromoCell, cat. C-28009), respectively. For all experiments, HUVEC and hMSC were used at passages </=5.
[…]

[1] = second compound 0.1 µM, first compound 0.0316 µM
[2] = second compound 0.1 µM, first compound 0.1 µM
[3] = second compound 0.1 µM, first compound 0.316 µM
[4] = second compound 0.1 µM, first compound 1 µM
[5] = second compound 0.316 µM, first compound 0.0316 µM
[6] = second compound 0.316 µM, first compound 0.1 µM
[7] = second compound 0.316 µM, first compound 0.316 µM
[8] = second compound 0.316 µM, first compound 1 µM
[9] = second compound 1 µM, first compound 0.0316 µM
[10] = second compound 1 µM, first compound 0.1 µM
[11] = second compound 1 µM, first compound 0.316 µM
[12] = second compound 1 µM, first compound 1 µM
[13] = second compound 3.16 µM, first compound 0.0316 µM
[14] = second compound 3.16 µM, first compound 0.1 µM
[15] = second compound 3.16 µM, first compound 0.316 µM
[16] = second compound 3.16 µM, first compound 1 µM
[17] = second compound 10 µM, first compound 0.0316 µM
[18] = second compound 10 µM, first compound 0.1 µM
[19] = second compound 10 µM, first compound 0.316 µM
[20] = second compound 10 µM, first compound 1 µM
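Also: spheroids exposed to compounds for seven days.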
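For viability, T/C in this document: 100% = DMSO vehicle control viability.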

SMILES: CC(=O)c1c(C)c2cnc(Nc3ccc(N4CCNCC4)cn3)nc2n(C2CCCC2)c1=O + CC(C)NCC(C(=O)N1CCN(c2ncnc3c2C(C)CC3O)CC1)c1ccc(Cl)cc1
- IC50 (second compound 0.1 µM): > 300 nM
- IC50 (second compound 0.316 µM): > 300 nM
- IC50 (second compound 1 µM): > 300 nM
- IC50 (second compound 3.16 µM): > 300 nM
- IC50 (second compound 10 µM): < 0.949 nM
- viability, T/C (second compound 0.1 µM, first compound 0.000949 µM): 101%
- viability, T/C (second compound 0.1 µM, first compound 0.003 µM): 98.6%
- viability, T/C (second compound 0.1 µM, first compound 0.00949 µM): 92.3%
- viability, T/C (second compound 0.1 µM, first compound 0.03 µM): 94.3%
- viability, T/C (second compound 0.1 µM, first compound 0.0949 µM): 89.2%
- viability, T/C (second compound 0.1 µM, first compound 0.3 µM): 103%
- viability, T/C (second compound 0.316 µM, first compound 0.000949 µM): 76.2%
- viability, T/C (second compound 0.316 µM, first compound 0.003 µM): 74.1%
- viability, T/C (second compound 0.316 µM, first compound 0.00949 µM): 78.6%
- viability, T/C (second compound 0.316 µM, first compound 0.03 µM): 80.7%
- viability, T/C (second compound 0.316 µM, first compound 0.0949 µM): 66.5%
- viability, T/C (second compound 0.316 µM, first compound 0.3 µM): 80.6%
- viability, T/C (second compound 1 µM, first compound 0.000949 µM): 65.5%
- viability, T/C (second compound 1 µM, first compound 0.003 µM): 62.5%
- viability, T/C (second compound 1 µM, first compound 0.00949 µM): 59.6%
- viability, T/C (second compound 1 µM, first compound 0.03 µM): 52.8%
- viability, T/C (second compound 1 µM, first compound 0.0949 µM): 65%
- viability, T/C (second compound 1 µM, first compound 0.3 µM): 64.3%
- viability, T/C (second compound 3.16 µM, first compound 0.000949 µM): 51%
- viability, T/C (second compound 3.16 µM, first compound 0.003 µM): 54.5%
- viability, T/C (second compound 3.16 µM, first compound 0.00949 µM): 54%
- viability, T/C (second compound 3.16 µM, first compound 0.03 µM): 47.1%
- viability, T/C (second compound 3.16 µM, first compound 0.0949 µM): 61.6%
- viability, T/C (second compound 3.16 µM, first compound 0.3 µM): 47%
- viability, T/C (second compound 10 µM, first compound 0.000949 µM): 45.1%
- viability, T/C (second compound 10 µM, first compound 0.003 µM): 44.3%
- viability, T/C (second compound 10 µM, first compound 0.00949 µM): 45%
- viability, T/C (second compound 10 µM, first compound 0.03 µM): 38.9%
- viability, T/C (second compound 10 µM, first compound 0.0949 µM): 37.8%
- viability, T/C (second compound 10 µM, first compound 0.3 µM): 44.1%

SMILES: COc1c(OCCCN2CCOCC2)ccc2c3n(c(=NC(=O)c4cnc(N)nc4)nc12)CCN3 + CC(C)NCC(C(=O)N1CCN(c2ncnc3c2C(C)CC3O)CC1)c1ccc(Cl)cc1
- IC50 (second compound 0.1 µM): 46.5 nM
- IC50 (second compound 0.316 µM): 27.3 nM
- IC50 (second compound 1 µM): 11.8 nM
- IC50 (second compound 3.16 µM): < 3.16 nM
- IC50 (second compound 10 µM): < 3.16 nM
- viability, T/C (second compound 0.1 µM, first compound 0.00316 µM): 81.3%
- viability, T/C (second compound 0.1 µM, first compound 0.01 µM): 74.2%
- viability, T/C [1]: 58.3%
- viability, T/C [2]: 32.5%
- viability, T/C [3]: 19.8%
- viability, T/C [4]: 3.52%
- viability, T/C (second compound 0.316 µM, first compound 0.00316 µM): 74.7%
- viability, T/C (second compound 0.316 µM, first compound 0.01 µM): 63%
- viability, T/C [5]: 49.4%
- viability, T/C [6]: 28.9%
- viability, T/C [7]: 16.7%
- viability, T/C [8]: 2.34%
- viability, T/C (second compound 1 µM, first compound 0.00316 µM): 59.3%
- viability, T/C (second compound 1 µM, first compound 0.01 µM): 53%
- viability, T/C [9]: 39.3%
- viability, T/C [10]: 25.6%
- viability, T/C [11]: 13.9%
- viability, T/C [12]: 1.91%
- viability, T/C (second compound 3.16 µM, first compound 0.00316 µM): 46.8%
- viability, T/C (second compound 3.16 µM, first compound 0.01 µM): 41.7%
- viability, T/C [13]: 33.9%
- viability, T/C [14]: 21.5%
- viability, T/C [15]: 13.9%
- viability, T/C [16]: 1.61%
- viability, T/C (second compound 10 µM, first compound 0.00316 µM): 35.6%
- viability, T/C (second compound 10 µM, first compound 0.01 µM): 31.9%
- viability, T/C [17]: 24.8%
- viability, T/C [18]: 16.3%
- viability, T/C [19]: 6.62%
- viability, T/C [20]: 1.13%

SMILES: Cc1nc(NC(=O)N2CCCC2C(N)=O)sc1-c1ccnc(C(C)(C)C(F)(F)F)c1 (stereo not given) + CC(C)NCC(C(=O)N1CCN(c2ncnc3c2C(C)CC3O)CC1)c1ccc(Cl)cc1
- IC50 (second compound 0.1 µM): 1490 nM
- IC50 (second compound 0.316 µM): 961 nM
- IC50 (second compound 1 µM): 704 nM
- IC50 (second compound 3.16 µM): < 31.6 nM
- IC50 (second compound 10 µM): < 31.6 nM
- viability, T/C [1]: 93.4%
- viability, T/C [2]: 77.3%
- viability, T/C [3]: 67.5%
- viability, T/C [4]: 52.8%
- viability, T/C (second compound 0.1 µM, first compound 3.16 µM): 47.6%
- viability, T/C (second compound 0.1 µM, first compound 10 µM): 22.7%
- viability, T/C [5]: 81.3%
- viability, T/C [6]: 71.7%
- viability, T/C [7]: 63.1%
- viability, T/C [8]: 42.7%
- viability, T/C (second compound 0.316 µM, first compound 3.16 µM): 45.7%
- viability, T/C (second compound 0.316 µM, first compound 10 µM): 16.4%
- viability, T/C [9]: 67.2%
- viability, T/C [10]: 60.4%
- viability, T/C [11]: 59.5%
- viability, T/C [12]: 43.5%
- viability, T/C (second compound 1 µM, first compound 3.16 µM): 36.4%
- viability, T/C (second compound 1 µM, first compound 10 µM): 14.2%
- viability, T/C [13]: 49.9%
- viability, T/C [14]: 43.9%
- viability, T/C [15]: 44.9%
- viability, T/C [16]: 35.7%
- viability, T/C (second compound 3.16 µM, first compound 3.16 µM): 27.1%
- viability, T/C (second compound 3.16 µM, first compound 10 µM): 5.2%
- viability, T/C [17]: 40.5%
- viability, T/C [18]: 40%
- viability, T/C [19]: 32.9%
- viability, T/C [20]: 25.7%
- viability, T/C (second compound 10 µM, first compound 3.16 µM): 15.2%
- viability, T/C (second compound 10 µM, first compound 10 µM): 1.06%
